The target of one assay is T1, LlFpg/DNA complex C2 (Lactococcus lactis subsp. cremoris, UniProt P42371).
T1 construct: made in house; host or cells: E. coli BH540 (fpg defective)
T1 sequence (P42371 2-273 limits assumed): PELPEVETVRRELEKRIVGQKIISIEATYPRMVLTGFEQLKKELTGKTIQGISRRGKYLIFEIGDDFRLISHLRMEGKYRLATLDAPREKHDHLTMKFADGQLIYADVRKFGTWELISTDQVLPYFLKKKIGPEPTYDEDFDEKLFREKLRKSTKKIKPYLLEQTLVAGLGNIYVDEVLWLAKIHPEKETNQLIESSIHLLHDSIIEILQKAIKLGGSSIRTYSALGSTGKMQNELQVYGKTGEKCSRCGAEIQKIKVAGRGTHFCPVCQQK
The experiment in a line: EMSA, Fpg DNA binding to 14-mer [THF:C] duplex, non-specific complex C2 (Fpg/DNA 2/1). The note with it: 2 mM TCEP, 6.7-fold molar excess over compound; Figure 3. An excerpt: (§1) To complement this study, we examined the effect of TXn on the binding of Fpg to a short DNA duplex containing a tetrahydrofuran (THF), a non-cleavable AP site analog. The enzyme specifically recognizes THF and forms a stable abortive complex with DNA [18, 34, 35, 36]. […] A representative titration experiment (with and without TCEP) of the 14-mer [THF:C] Fpg formed two stable complexes with this short DNA probe that were easily observed by EMSA: a high-affinity complex C1 corresponding to the lesion recognition complex (LRC), with nanomolar affinity, and a complex C2 only observed at higher Fpg concentrations. C2 results in C1 titration by a second Fpg molecule. This finding illustrates that the crystal structure of Fpg bound to 8-oxoG-carbanucleotide-containing DNA [38] (Figure S5). The stability of each preformed complex was then examined by EMSA in the presence of 2TX or TXn. […] The enzyme inactivation mediated by 2TX through ZnF oxidation that directly affects the DNA binding properties of the enzyme is also in agreement with this last observation.
The inhibitor concentrations that induced the loss of the half-maximal binding (IC50app^B) were determined from these curves and are reported in Table 1. IC50app^B compared well with IC50app^A. As observed above for the enzyme activity, strong reducers, such as TCEP, abolished the negative effects of 2TX and TXn on Fpg/DNA complex stability and formation. These findings again indicate that inhibition by thio-compounds essentially relies on the oxidation of the Fpg ZnF (for an example, see experiment with TX19, Figure S4). […] This troubling and unexpected observation led us to evaluate this effect with the TXn small library compounds. To prevent a side effect due to a possible partial reduction by TCEP, we performed EMSA in the presence of a 6.7-fold molar excess of TCEP with respect to 2TX and TXn after complex formation (Figure 3).
Figure 3 Impact of TXn on the non-specific Fpg/DNA complex C2 stability in highly reducing conditions. EMSA was performed as described in the ‘Material & Methods’, except TCEP was added at a 2 mM final concentration in each binding assay. (a) Representative experiment at 0.3 mM 2TX and more efficient TXn; (b) Dose-response with the best TXn. Upper panel: Representative EMSA experiment with TX10. Lower panel: Dose-response curves with the indicated TXn.
The DNA binding activity was measured using EMSA [37]. Briefly, 0.1 nM of the 5′-labeled 14-mer [THF:C] (see above) was incubated with the enzyme at 4 °C for 30 min in 25 mM HEPES/NaOH (pH 7.5), 150 mM NaCl, 5% glycerol, 0.1 mg/mL BSA and 8% DMSO. The incubation mixture was then loaded onto a native 10% polyacrylamide gel (Acryl/Bis 19/1) and electrophoresed at 25 V/cm for 90 min at 4 °C. After electrophoresis, the gels were dried and exposed overnight for autoradiography using a Typhoon imager and quantified with ImageQuant software. To evaluate the inhibitor effect of 2TX/TXn on the DNA binding activity of each Fpg/Nei enzyme, we first determined the experimental conditions required to bind 50% of the DNA probes without an inhibitor in the presence of 8% DMSO (limiting enzyme concentration). Under these conditions, we obtained the half-maximal DNA binding 0.25, 7 and 5 nM of Fpg, hNeil1 and mvNei1. We used this limited enzyme concentrations to evaluate the inhibitor effect of 2TX/TXn on the enzyme DNA binding activity. This effect was determined by the addition of the thio-compound in the pre-equilibrium mixture of the enzyme and DNA probe (30 min) and incubated for an additional 30 min at 4 °C. For the best inhibitors of Fpg, a dose-response curve was established from at least three independent experiments and the IC50 was determined (IC50^B, Table 1). […]
Rieux et al. Thiopurine derivative-induced Fpg/Nei DNA glycosylase inhibition:
structural, dynamic and functional insights
Figure S6. […]
A general note: In EMSA bound probe runs differently from free probe, usually more slowly.

The target of a further assay is T2, LlFpg (Lactococcus lactis subsp. cremoris, UniProt P42371).
T2 construct: made in house; host or cells: E. coli BH540 (fpg defective)
As to the kind of experiment: LlFpg 8-oxoG-DNA glycosylase/AP lyase activity assay (Urea-PAGE radioassay). Conditions: for IC50: homogeneous reduced or disulfide form dissolved in 50 mM sodium phosphate, no DMSO stock, read-out: IC50^A (Fpg catalysis), homogeneous redox forms; for inhibition of Fpg catalytic activity by reduced forms: 400 µM, homogeneous reduced form. Type of assay: biochemical. The method, then: Figure 1 Effect of 2-thioxanthine (2TX)-derivatives on Fpg activity. A total of 20 nM of 5′-[^32P]-8-oxoG-containing 24-bp DNA duplex (labeled on the damaged strand) was incubated with 2 nM of LlFpg alone (dimethyl sulfoxide (DMSO) control) or with the indicated 2TX and 2TX-derivatives (TXn) concentrations, as described in the “Materials and Methods” section. (a) Screening of TXn for Fpg inhibition. Averages and standard deviations were obtained from at least three independent experiments. Mono- and di-thiolated compounds are highlighted in red and blue, respectively. (b) Dose-response curves for best inhibitors. Each data point represents the mean value obtained from at least three independent measurements.
(§2) Fpg, hNeil1 and mvNei1 are bifunctional DNA glycosylases associated with concerted DNA glycosylase activity (cleavage of the N-glycosidic bond between the base lesion and the C1′ of the deoxyribose) and AP lyase activity that comprises the successive cleavage of the phosphodiester bonds at the 3′ and 5′ of the resulting abasic (AP) site, respectively (β, δ-elimination). Thus, AP sites that result from the excision of the damaged base are quantitatively converted into one nucleoside gap by these enzymes. The DNA glycosylase/AP lyase activity of each enzyme was measured by incubating 20 nM of 24-mer DNA duplexes ([OG:C] and [DHU:G] for Fpg and hNeil1/mvNei1, respectively) 5′-labeling on the damaged strand (see above) with 2 nM of Fpg, or mvNei1 for 15 min or, with 20 nM of hNeil1 for 30 min at 37 °C in 10 mM Tris-HCl, pH 7.6, 150 mM NaCl, 1 mM EDTA, 0.1 mg/mL BSA and 8% DMSO. The reaction was stopped by the addition of 1 volume of formamide loading buffer (96% formamide, 20 mM Tris/HCl pH 8.0 and 2 mM Na2EDTA), heated at 80 °C for 2 min and then analyzed by 20% Urea-PAGE, as previously described. […] Under these conditions, only 50% of the substrate is converted to the cleavage product (limiting enzyme concentration conditions). For an initial evaluation of the inhibitory effect, 40 µM of 2TX/TXn was used. The thio-compound was added to the reaction mixture before the final addition of the enzyme (competition condition). For the best identified inhibitors, a dose-response curve was generated and IC50^A determined (Figure 1 and Table 1).

The target in another assay is T3, mvNei1 (Acanthamoeba polyphaga mimivirus, UniProt Q5UQ00).
T3 construct: 6His (C); made in house; host or cells: E. coli Rosetta2 (DE3)
As to the kind of experiment: mvNei1 DNA glycosylase/AP lyase activity assay on DHU:G 24-mer duplex. The note with it: Figure 6d. It is filed as biochemical. How it is done:
(§3) Figure 4 Comparative analysis of the effect of 2TX and TXn on Fpg/Nei DNA glycosylases. Enzyme activities were measured as described in the Figure 1 legend using […] of a 5′-[^32P]-24-mer DNA duplex containing either an 8-oxoG opposite C for LlFpg or a […] (DHU) opposite G for hNeil1 and mvNei1. The DNA probe was incubated with the indicated protein concentration and 0.2 mM TXn compounds in the presence or absence of 1 mM dithiothreitol (DTT) and TCEP (a representative experiment is illustrated by the upper histograms). The DNA probe for EMSA was 0.1 nM of 5′-[^32P]-[…] DNA duplex containing THF with LlFpg and mvNei1 (bottom panels: gel autoradiography) with the indicated conditions and as described in ‘Materials and Methods’.
as §2

The target of another assay is T4, LlFpg/DNA complex C1 (Lactococcus lactis subsp. cremoris, UniProt P42371).
T4 construct: made in house; host or cells: E. coli BH540 (fpg defective)
The experiment in a line: EMSA, Fpg DNA binding to 14-mer [THF:C] duplex, complex C1 (lesion recognition complex, Fpg/DNA 1/1). The note with it: homogeneous reduced or disulfide form in 50 mM sodium phosphate; 14-mer [THF:C]; read-out: IC50^B (Fpg DNA binding), homogeneous redox forms.
From the text: as §1
Figure 2 The effect of 2TX and TXn on Fpg DNA binding to abasic site-containing DNA. A 14-mer DNA duplex containing a tetrahydrofurane (THF) site as an abasic site analog was incubated with a limiting Fpg concentration (0.25 nM) with and without increasing concentrations of TXn. Incubation mixtures were then analyzed by electrophoretic mobility shift assay (EMSA), as described in the ‘Materials and Methods’. (a) Titration experiments with (+) and without (-) 2 mM tris(2-carboxyethyl)phosphine hydrochloride (TCEP) C1 and C2 are for the [1/1] and [2/1] Fpg/DNA complexes, respectively (see detailed in the text). (b) Fpg DNA binding concentration-dependence for 2TX and the more efficient TXn inhibitors. A representative EMSA autoradiography with 0.25 nM of Fpg alone (lane no) and 0.5, 2.5, 5, 10, 20, 40, 50, 250, 1000 µM is shown in the upper panel. IC50app^B corresponds to the TXn amount needed to halve the C1 complex formation and was extracted from the dose-response curves (lower panel; Table 1).
The DNA binding activity was measured using EMSA [37]. Briefly, 0.1 nM of the 5′-labeled 14-mer [THF:C] (see above) was incubated with the enzyme at 4 °C for 30 min in 25 mM HEPES/NaOH (pH 7.5), 150 mM NaCl, 5% glycerol, 0.1 mg/mL BSA and 8% DMSO. The incubation mixture was then loaded onto a native 10% polyacrylamide gel (Acryl/Bis 19/1) and electrophoresed at 25 V/cm for 90 min at 4 °C. After electrophoresis, the gels were dried and exposed overnight for autoradiography using a Typhoon imager and quantified with ImageQuant software. To evaluate the inhibitor effect of 2TX/TXn on the DNA binding activity of each Fpg/Nei enzyme, we first determined the experimental conditions required to bind 50% of the DNA probes without an inhibitor in the presence of 8% DMSO (limiting enzyme concentration). Under these conditions, we obtained the half-maximal DNA binding 0.25, 7 and 5 nM of Fpg, hNeil1 and mvNei1. We used this limited enzyme concentrations to evaluate the inhibitor effect of 2TX/TXn on the enzyme DNA binding activity. This effect was determined by the addition of the thio-compound in the pre-equilibrium mixture of the enzyme and DNA probe (30 min) and incubated for an additional 30 min at 4 °C. For the best inhibitors of Fpg, a dose-response curve was established from at least three independent experiments and the IC50 was determined (IC50^B, Table 1).

For the next assay, the target named is hNeil1 (Homo sapiens, UniProt Q96FI4). As to the kind of experiment: hNeil1 DNA glycosylase/AP lyase activity assay on DHU:G 24-mer duplex. Type of assay: biochemical. The note with it: Figure 6d. Also noted: Overproduction was performed as described above for full length hNeil1; 6His (C); made in house; host or cells: E. coli Rosetta2 (DE3). The method, then:
as §3, §2

For orientation: IC50 means the point on the concentration scale where inhibition reaches its midpoint.

Sequence of hNeil1 (Q96FI4 whole entry): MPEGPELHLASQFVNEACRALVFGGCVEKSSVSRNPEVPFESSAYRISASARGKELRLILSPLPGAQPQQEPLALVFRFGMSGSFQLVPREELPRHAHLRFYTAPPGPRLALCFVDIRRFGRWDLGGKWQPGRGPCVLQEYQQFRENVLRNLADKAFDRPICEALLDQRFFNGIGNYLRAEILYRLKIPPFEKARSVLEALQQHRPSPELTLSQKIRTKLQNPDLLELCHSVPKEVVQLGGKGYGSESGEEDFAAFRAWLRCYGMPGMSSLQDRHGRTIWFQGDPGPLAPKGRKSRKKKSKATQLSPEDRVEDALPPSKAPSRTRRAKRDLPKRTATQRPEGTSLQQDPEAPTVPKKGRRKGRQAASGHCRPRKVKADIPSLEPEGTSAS
T3 sequence (Q5UQ00 whole entry): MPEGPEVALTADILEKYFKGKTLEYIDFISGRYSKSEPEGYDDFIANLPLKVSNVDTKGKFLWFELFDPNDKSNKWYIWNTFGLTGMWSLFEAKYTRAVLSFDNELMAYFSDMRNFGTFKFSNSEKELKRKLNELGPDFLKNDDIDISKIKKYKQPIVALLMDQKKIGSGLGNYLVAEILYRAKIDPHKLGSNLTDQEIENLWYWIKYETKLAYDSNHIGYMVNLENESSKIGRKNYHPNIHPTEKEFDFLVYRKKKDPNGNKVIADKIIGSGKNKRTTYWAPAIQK

Turning to `CNc1nc(C(F)(F)F)nc2[nH]cnc12` [TX11], the “destabilization of complex C2 in highly reducing conditions” value at LlFpg/DNA complex C2 is on record as “among the best C2 destabilizers”.

For the compound `O=c1[nH]c(SSc2nc3[nH]cnc3c(=O)[nH]2)nc2[nH]cnc12` [Compound 2TXOx], the IC50 at LlFpg is 5.5 µM; on LlFpg/DNA complex C1 it was 34 ± 2 µM. Moreover, the “inhibition of mvNei1 by homogeneous disulfide forms” value against mvNei1 was “neither 2TXOx nor TX14Ox inhibited”. The “inhibition of hNeil1 by homogeneous disulfide forms” value against hNeil1 is recorded as “neither 2TXOx nor TX14Ox inhibited”.

Consider `COc1nc(C(F)(F)F)nc2[nH]cnc12` [TX10], for which the “destabilization of complex C2 in highly reducing conditions” value at LlFpg/DNA complex C2 is on record as “among the best C2 destabilizers”.

For the compound `O=c1[nH]c2[nH]c(=S)[nH]c(=O)c2[nH]1` [TX14Red], at LlFpg, the “inhibition of Fpg catalytic activity by reduced forms” value is given as “did not inhibit the enzyme” and the IC50 is > 1000 µM. Besides, the IC50 at LlFpg/DNA complex C1 was > 1000 µM.

Turning to `O=c1[nH]c(=S)[nH]c2[nH]cnc12` [Compound 2TXRed, reference compound], the “inhibition of Fpg catalytic activity by reduced forms” value at LlFpg is “did not inhibit the enzyme”. Besides, the IC50 on LlFpg and at LlFpg/DNA complex C1 was > 1000 µM each time.

For the compound `O=c1[nH]c2nc(SSc3nc4[nH]c(=O)[nH]c4c(=O)[nH]3)[nH]c(=O)c2[nH]1` [TX14Ox], the IC50 at LlFpg stood at 2.7 µM; at LlFpg/DNA complex C1 it was 26 ± 1 µM. Besides, the “inhibition of mvNei1 by homogeneous disulfide forms” value against mvNei1 was “neither 2TXOx nor TX14Ox inhibited”. Also, the “inhibition of hNeil1 by homogeneous disulfide forms” value against hNeil1 is given as “neither 2TXOx nor TX14Ox inhibited”.

Turning to `Cc1nc(S)c2[nH]cnc2n1` [TX4], at LlFpg (40 µM compound, Figure 1a), the “effect on Fpg 8-oxoG-DNA glycosylase/AP lyase activity (screening)” value is on record as “drastically decreased the inhibitory effect”.

The values are drawn from publication PMC7139703, “Thiopurine Derivative-Induced Fpg/Nei DNA Glycosylase Inhibition: Structural, Dynamic and Functional Insights” (International Journal of Molecular Sciences, 2020).
